Measurements from patent US10757944B2, “Ozone treatment for elimination of pathogens” (priority 2016, dated 2020).
Several values for one entry are separate records, joined by “and”; a condition that tells them apart may be missing. Equal entries are not always repeated.

System: Candida albicans
Assay: Gaseous ozone treatment of Cannabis inoculated with Candida, microbial count
Format: cell-based
Conditions: for Microbial Count: 20 min
Description: Cannabis plants were individually contaminated with Escherichia Coli, Salmonella enterica sv typhimurium, Listeria monocytogenes and Candida albicans then exposed to gaseous ozone for 20 minutes at 100 ppm and 200 ppm.
Pure cultures of Escherichia coli and Listeria monocytogenes provided by the American Type Culture Collection (ATCC) were grown in selective media broths. The Candida albicans provided by ATCC was grown on potato dextrose agar, and after significant growth was achieved, the colonies were transferred and suspended in Butterfield's buffer. After significant turbidity in each broth of pathogens was observed, they, along with Butterfield's buffer with the suspended Candida albicans, were used to inoculate individual Cannabis samples. This process created four individual populations of Cannabis with each population being contaminated with one of the four organisms grown. After inoculating the samples they were allowed to dry overnight by placing them out in the open at room temperature. Each population of Cannabis was then divided into smaller individual 2-4 gram samples which were used in the tests. One test consisted of placing nearly half of the smaller samples into an ozone gas chamber for 20 minutes at an approximate ozone concentration of 100 ppm. The remaining samples were set aside to be used as controls.
Three samples for each organism were tested at each of the concentrations. The control samples were placed into the same chamber for 20 minutes with an ozone concentration of 0 ppm. All samples were then analyzed for their microbial counts by first generating serial dilution using Butterfield's buffer as the diluent for each sample then individually plating the resultant dilutions onto selective media appropriate for the organism being analyzed. After the required incubation temperatures and times were completed, the organisms on the plates were counted. For each set of dilutions of a given sample and starting at the plate representing the lowest dilution ratio, the first plate that was countable was counted and the result was recorded.
Testing occurred over two days. The first day involved testing one sample of Cannabis for each organism at an ozone concentration of 100 ppm and another test of only Listeria at 50 ppm. Additional testing involving subsequent trials for each organism at ozone concentrations of 100 ppm and 200 ppm were conducted on the second day of testing.
The ozone concentration in the ozone chamber was kept at a range approximating the desired 100 ppm and 200 ppm concentrations. For instance, when the desired concentration was 100 ppm, the actual range of concentrations was 98 ppm to 106 ppm, and when the desired concentration was 200 ppm, the actual range of concentration was 198 ppm to 204 ppm. […]

With O=[O+][O-] [ozone] the “effect of ozone treatment on Candida albicans (in words)” value (100 ppm and 200 ppm ozone, 20 minutes) was “limited”, the “microbial count of 200 ppm trials compared with the control group (in words)” value (200 ppm ozone, 20 minutes, FIG. 10) was “average reduced microbial count” and the “Microbial Count” value (listed as 'Mold Treated', first day, target ozone 100 ppm (actual 95-102 ppm), Mold Control (0 ppm) 1.4 * 10^12) was 1.9 * 10^11 cfu/g. The “Microbial Count” value (second day, ozone 100 ppm (98-106 ppm), Trials 2-3, control 5.0 * 10^5) was 2.7 * 10^5 cfu/g and 1.5 * 10^4 cfu/g.
